Experimental data taken from PubChem BioAssay (NCI).
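Results reflect a 48-hour exposure of cells in 96-well plates to compound at five concentrations. TGI: total growth inhibition.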

Assays:
Test in all cases: growth of human tumour cells (NCI), 48 h
NCI-H460 lung = tested on: NCI-H460 lung
SNB-75 CNS = tested on: SNB-75 CNS
SK-OV-3 ovarian = tested on: SK-OV-3 ovarian
M14 melanoma = tested on: M14 melanoma
PC-3 prostate = tested on: PC-3 prostate
SW-620 colon = tested on: SW-620 colon
HCT-116 colon = tested on: HCT-116 colon
OVCAR-4 ovarian = tested on: OVCAR-4 ovarian
OVCAR-3 ovarian = tested on: OVCAR-3 ovarian
HS 578T breast = tested on: HS 578T breast
SR leukemia = tested on: SR leukemia
UO-31 renal = tested on: UO-31 renal
TK-10 renal = tested on: TK-10 renal
OVCAR-5 ovarian = tested on: OVCAR-5 ovarian
MDA-MB-435 = tested on: MDA-MB-435
SF-268 CNS = tested on: SF-268 CNS
COLO 205 colon = tested on: COLO 205 colon
786-0 renal = tested on: 786-0 renal
SF-295 CNS = tested on: SF-295 CNS
HCT-15 colon = tested on: HCT-15 colon
SK-MEL-28 melanoma = tested on: SK-MEL-28 melanoma
CCRF-CEM leukemia = tested on: CCRF-CEM leukemia
OVCAR-8 ovarian = tested on: OVCAR-8 ovarian
HT29 colon = tested on: HT29 colon
SNB-19 CNS = tested on: SNB-19 CNS
K-562 leukemia = tested on: K-562 leukemia
HCC-2998 colon = tested on: HCC-2998 colon
NCI-H226 lung = tested on: NCI-H226 lung
RXF 393 renal = tested on: RXF 393 renal
SK-MEL-2 melanoma = tested on: SK-MEL-2 melanoma
A498 renal = tested on: A498 renal
HOP-62 NSCLC = tested on: HOP-62 NSCLC
LOX IMVI melanoma = tested on: LOX IMVI melanoma
NCI-H23 lung = tested on: NCI-H23 lung
BT-549 breast = tested on: BT-549 breast
MALME-3M melanoma = tested on: MALME-3M melanoma
SK-MEL-5 melanoma = tested on: SK-MEL-5 melanoma
SF-539 CNS = tested on: SF-539 CNS
U251 CNS = tested on: U251 CNS
IGROV1 ovarian = tested on: IGROV1 ovarian
KM12 colon = tested on: KM12 colon
UACC-62 melanoma = tested on: UACC-62 melanoma
ACHN renal = tested on: ACHN renal
EKVX NSCLC = tested on: EKVX NSCLC
MOLT-4 leukemia = tested on: MOLT-4 leukemia
T-47D breast = tested on: T-47D breast
A549 NSCLC = tested on: A549 NSCLC
HOP-92 NSCLC = tested on: HOP-92 NSCLC
DU-145 prostate = tested on: DU-145 prostate
SN12C renal = tested on: SN12C renal
MDA-N = tested on: MDA-N
MDA-MB-231 breast = tested on: MDA-MB-231 breast
HL-60(TB) leukemia = tested on: HL-60(TB) leukemia
CAKI-1 renal = tested on: CAKI-1 renal
UACC-257 melanoma = tested on: UACC-257 melanoma
NCI-H522 lung = tested on: NCI-H522 lung
MCF7 breast = tested on: MCF7 breast
RPMI-8226 leukemia = tested on: RPMI-8226 leukemia
NCI/ADR-RES ovarian = tested on: NCI/ADR-RES ovarian

## CC(C)OC(=O)c1ccc(NCc2cc(O)ccc2O)cc1
NCI-H460 lung
  TGI: > 100 µM
SNB-75 CNS
  TGI: 18.6 µM
SK-OV-3 ovarian
  TGI: > 100 µM
M14 melanoma
  TGI: 22.4 µM
PC-3 prostate
  TGI: 3.99 µM
SW-620 colon
  TGI: 17.7 µM
HCT-116 colon
  TGI: 19.8 µM
OVCAR-4 ovarian
  TGI: 18.7 µM
OVCAR-3 ovarian
  TGI: 4.71 µM
HS 578T breast
  TGI: > 29.6 µM
SR leukemia
  TGI: 10.2 µM
UO-31 renal
  TGI: 2.91 µM
TK-10 renal
  TGI: 14.7 µM
OVCAR-5 ovarian
  TGI: 15.9 µM
MDA-MB-435
  TGI: 12.9 µM
SF-268 CNS
  TGI: 28.4 µM
COLO 205 colon
  TGI: 9.48 µM
786-0 renal
  TGI: 10.3 µM
SF-295 CNS
  TGI: 20.4 µM
HCT-15 colon
  TGI: 9.21 µM
SK-MEL-28 melanoma
  TGI: 29.3 µM
CCRF-CEM leukemia
  TGI: > 100 µM
OVCAR-8 ovarian
  TGI: > 21.9 µM
HT29 colon
  TGI: 31.5 µM
SNB-19 CNS
  TGI: > 68.7 µM
K-562 leukemia
  TGI: 6.98 µM
HCC-2998 colon
  TGI: 28.6 µM
NCI-H226 lung
  TGI: 18.9 µM
RXF 393 renal
  TGI: 5.79 µM
SK-MEL-2 melanoma
  TGI: 27.8 µM
A498 renal
  TGI: > 100 µM
HOP-62 NSCLC
  TGI: 31.9 µM
LOX IMVI melanoma
  TGI: 15.9 µM
NCI-H23 lung
  TGI: 18 µM
BT-549 breast
  TGI: 12.4 µM
MALME-3M melanoma
  TGI: 5.2 µM
SK-MEL-5 melanoma
  TGI: 10.8 µM
SF-539 CNS
  TGI: 3.34 µM
U251 CNS
  TGI: 17.1 µM
IGROV1 ovarian
  TGI: 15 µM
KM12 colon
  TGI: 12.5 µM
UACC-62 melanoma
  TGI: 30.9 µM
ACHN renal
  TGI: 13.5 µM
EKVX NSCLC
  TGI: 17.5 µM
MOLT-4 leukemia
  TGI: 10.3 µM
T-47D breast
  TGI: 4.66 µM
A549 NSCLC
  TGI: > 67.8 µM
HOP-92 NSCLC
  TGI: 5.03 µM
DU-145 prostate
  TGI: 15.4 µM
SN12C renal
  TGI: 7.3 µM
MDA-N
  TGI: 13.2 µM
MDA-MB-231 breast
  TGI: 9.59 µM
HL-60(TB) leukemia
  TGI: 1.62 µM
CAKI-1 renal
  TGI: 2.81 µM
UACC-257 melanoma
  TGI: 26.2 µM
NCI-H522 lung
  TGI: 0.638 µM
MCF7 breast
  TGI: 18.9 µM

## CCOC1OC(CO)C(O)CC1n1ccc(=O)[nH]c1=O (stereo not given)
NCI-H460 lung
  TGI: > 100 µM
SNB-75 CNS
  TGI: > 100 µM
M14 melanoma
  TGI: > 100 µM
PC-3 prostate
  TGI: > 100 µM
SW-620 colon
  TGI: > 100 µM
RPMI-8226 leukemia
  TGI: > 100 µM
HCT-116 colon
  TGI: > 100 µM
OVCAR-4 ovarian
  TGI: > 100 µM
OVCAR-3 ovarian
  TGI: > 100 µM
HS 578T breast
  TGI: > 100 µM
UO-31 renal
  TGI: > 100 µM
TK-10 renal
  TGI: > 100 µM
OVCAR-5 ovarian
  TGI: > 100 µM
MDA-MB-435
  TGI: > 100 µM
SF-268 CNS
  TGI: > 100 µM
COLO 205 colon
  TGI: > 100 µM
786-0 renal
  TGI: > 100 µM
SF-295 CNS
  TGI: > 100 µM
HCT-15 colon
  TGI: > 100 µM
SK-MEL-28 melanoma
  TGI: > 100 µM
OVCAR-8 ovarian
  TGI: > 100 µM
HT29 colon
  TGI: > 100 µM
SNB-19 CNS
  TGI: > 100 µM
K-562 leukemia
  TGI: > 100 µM
HCC-2998 colon
  TGI: > 100 µM
NCI-H226 lung
  TGI: > 100 µM
RXF 393 renal
  TGI: > 100 µM
SK-MEL-2 melanoma
  TGI: > 100 µM
A498 renal
  TGI: > 100 µM
LOX IMVI melanoma
  TGI: > 100 µM
NCI-H23 lung
  TGI: > 100 µM
BT-549 breast
  TGI: > 100 µM
MALME-3M melanoma
  TGI: > 100 µM
SK-MEL-5 melanoma
  TGI: > 100 µM
SF-539 CNS
  TGI: > 100 µM
U251 CNS
  TGI: > 100 µM
IGROV1 ovarian
  TGI: > 100 µM
KM12 colon
  TGI: > 100 µM
UACC-62 melanoma
  TGI: > 100 µM
NCI/ADR-RES ovarian
  TGI: > 100 µM
ACHN renal
  TGI: > 100 µM
EKVX NSCLC
  TGI: > 100 µM
T-47D breast
  TGI: > 100 µM
A549 NSCLC
  TGI: > 100 µM
HOP-92 NSCLC
  TGI: > 100 µM
DU-145 prostate
  TGI: > 100 µM
SN12C renal
  TGI: > 100 µM
MDA-N
  TGI: > 100 µM
MDA-MB-231 breast
  TGI: > 100 µM
CAKI-1 renal
  TGI: > 100 µM
UACC-257 melanoma
  TGI: > 100 µM
NCI-H522 lung
  TGI: > 100 µM
MCF7 breast
  TGI: > 100 µM
